Legend:
scalp hair = experiment: Hair shedding: hairs removed with brush, 4-day protocol (Example 5); type: in vivo, human
Excerpt: Patients: Fifteen female subjects, ages 18-40, were included in the study. Subjects were recruited based on their frequent use of traumatic hair care practices, such as, tight braids, head scarves, ponytails, extensions, hair rollers, hair weaves and heated styling appliances such as blow dryers, flat irons, heat setters and curling irons. Subjects with uncontrolled hypertension, that were pregnant or breastfeeding, had been diagnosed with pattern hair loss or with other hair loss in conjunction with female pattern hair loss were excluded from the study. […] Piloerection and blanching were visible after 30 minutes; the effect lasted for approximately 2-3 hours.
Hair Shedding: To measure hair loss during cosmetic procedures, a 4-day protocol was designed. On the first day patients were instructed to wash their hair and use styling products and procedures as they normally would. On the second day, patients were instructed not to wash their hair and to apply 0.5 mL of a placebo solution, containing a vehicle only, on the frontal area of the scalp in an 8×10 cm2 target area. Patients were instructed to wait 45 minutes, after which, they brushed their hair 20 times from the front of the scalp to the bottom of head using a new brush. After the procedure, the brushes were sealed in a plastic bag. […] After each clinical procedure, the investigator counted the hairs collected on each brush. […]

scalp hair follicles = experiment: Epilation force measured with trichotillometer (Example 5); type: in vivo, human; conditions: average of 10 subjects
Experimental: To evaluate the effect of a topically applied α1-AR agonist on the force required to pluck hairs from the scalp, a hand-held spring dynamometer, or “trichotillometer” was used (8). The trichotillometer records the maximum force threshold, in grams, required to pluck a single hair from the scalp; the performance and statistical variance of the instrument have been reported previously (8-10). Force measurements were performed using the trichotillometer on 10 subjects. The frontal area of scalp was divided into two 8×10 cm2 areas. On the right side 0.5 mL of a placebo vehicle was applied. […] After 45 minutes, ten hairs were plucked from each of the target areas with the trichotillometer.

## CNC[C@H](O)c1cccc(O)c1 [phenylephrine]
Scalp hair; 15 female subjects, blinded study
  subjects with reduced shedding compared to placebo: 80%
Scalp hair; average of 15 subjects
  AVERAGE reduction in hair loss vs placebo: approximately 42%
Scalp hair follicles
  AVERAGE increase of epilation force threshold vs placebo: approximately 172%
